This is an account of results in patent publication US20230265151A1, “GIP/GLP1 CO-AGONIST COMPOUNDS” (priority 2020, published 2023).

Common to all, as to format: cell-based
For assay [1], the target named is hGLP-1R (Homo sapiens, UniProt P43220). As to the kind of experiment: Functional cAMP formation (HTRF) in HEK-293 clonal cells expressing hGLP-1R, 0.1% bovine casein, without or with 1.0% human serum albumin. On the set-up: expressed in transfected cells. The settings on record: for EC50: geometric mean; for Emax: HEK293, cAMP, percent of maximal response to GLP-1(7-36)NH2, read-out: hGLP-1R Emax, % ± SEM. In a few lines: (§1)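 Readings of the HTRF 665/620 nm ratio, which falls as cAMP rises, were converted to nM cAMP using a standard curve after 30 min peptide exposure at 37° C.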

Assay [2] concerns the target T1, hGIPR (Homo sapiens, UniProt P48546).
T1 construct: expressed in transfected cells
T1 sequence (P48546 22-466): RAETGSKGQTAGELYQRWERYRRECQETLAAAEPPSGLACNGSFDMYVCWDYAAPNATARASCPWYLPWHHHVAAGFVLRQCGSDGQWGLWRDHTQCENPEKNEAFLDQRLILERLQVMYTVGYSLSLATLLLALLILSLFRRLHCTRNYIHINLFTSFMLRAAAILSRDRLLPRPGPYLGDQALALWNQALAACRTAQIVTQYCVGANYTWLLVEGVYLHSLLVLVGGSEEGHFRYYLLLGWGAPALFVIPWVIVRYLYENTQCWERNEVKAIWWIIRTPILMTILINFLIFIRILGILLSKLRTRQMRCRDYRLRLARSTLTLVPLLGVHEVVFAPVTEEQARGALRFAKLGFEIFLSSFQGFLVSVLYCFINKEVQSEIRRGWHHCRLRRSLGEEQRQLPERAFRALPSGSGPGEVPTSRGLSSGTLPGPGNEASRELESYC
Description: Functional cAMP formation (HTRF) in HEK-293 clonal cells expressing hGIPR, 0.1% bovine casein, without or with 1.0% human serum albumin. Particulars: for Emax: percent of maximal response to GIP(1-42)NH2; for EC50: geometric mean. In a few lines: as §1

Assay [3] concerns the target T2, hGCGR (Homo sapiens, UniProt P47871).
T2 construct: expressed in transfected cells
As to the kind of experiment: Functional cAMP formation (HTRF) in HEK-293 clonal cells expressing hGCGR, 0.1% bovine casein, without or with 1.0% human serum albumin. In a few lines:
as §1

Setting [4] is: 37° C., 0.1% bovine casein, arithmetic mean.
Where [5] appears, read: HEK293, 0.1% bovine casein and 1.0% human serum albumin, 37° C., read-out: hGIPR Emax, % ± SEM.
Where [6] appears, read: HEK293, cAMP, 37° C., 0.1% bovine casein, arithmetic mean, read-out: hGIPR Emax, % ± SEM.
[7] abbreviates: cAMP, 37° C., 0.1% bovine casein (no human serum albumin), read-out: hGIPR EC50, nM (SEM, n).
Setting [8] is: 0.1% bovine casein and 1.0% human serum albumin, 37° C., geometric mean, read-out: hGCGR EC50, nM (SEM, n).
Where [9] appears, read: cAMP, 37° C., 0.1% bovine casein (no human serum albumin), geometric mean, read-out: hGCGR EC50, nM (SEM, n).
Where [10] appears, read: cAMP, 37° C., 0.1% bovine casein (no human serum albumin), read-out: hGLP-1R EC50, nM (SEM, n).

Like-named read-outs stand apart in the source and are kept apart here.

Sequence of hGLP-1R (P43220 24-463): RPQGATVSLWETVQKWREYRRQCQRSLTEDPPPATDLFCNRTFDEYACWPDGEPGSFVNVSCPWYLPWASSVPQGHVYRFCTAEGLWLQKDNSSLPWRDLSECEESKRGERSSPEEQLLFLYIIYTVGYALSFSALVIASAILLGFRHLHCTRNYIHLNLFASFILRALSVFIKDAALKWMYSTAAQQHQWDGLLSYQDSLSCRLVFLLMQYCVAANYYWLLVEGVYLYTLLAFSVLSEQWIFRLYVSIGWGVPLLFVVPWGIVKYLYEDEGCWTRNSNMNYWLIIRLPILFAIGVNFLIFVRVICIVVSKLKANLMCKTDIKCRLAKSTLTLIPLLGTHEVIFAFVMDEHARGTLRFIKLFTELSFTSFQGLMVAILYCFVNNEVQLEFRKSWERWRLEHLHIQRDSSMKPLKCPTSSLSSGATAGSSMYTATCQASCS
T2 sequence (P47871 26-477): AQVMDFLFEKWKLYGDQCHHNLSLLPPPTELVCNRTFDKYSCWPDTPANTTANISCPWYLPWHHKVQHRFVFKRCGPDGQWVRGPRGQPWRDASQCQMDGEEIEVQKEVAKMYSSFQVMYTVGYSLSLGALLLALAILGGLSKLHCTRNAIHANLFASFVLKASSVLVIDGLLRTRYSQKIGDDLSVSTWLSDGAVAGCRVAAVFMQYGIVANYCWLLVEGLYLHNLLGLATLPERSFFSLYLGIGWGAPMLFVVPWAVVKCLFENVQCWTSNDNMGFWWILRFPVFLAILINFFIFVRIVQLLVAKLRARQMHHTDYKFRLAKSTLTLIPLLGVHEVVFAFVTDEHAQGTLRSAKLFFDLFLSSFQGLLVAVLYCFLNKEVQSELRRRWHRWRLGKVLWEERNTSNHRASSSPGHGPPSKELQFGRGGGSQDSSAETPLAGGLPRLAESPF

Take `CC[C@H](C)[C@H](NC(=O)[C@H](CC(C)C)NC(=O)[C@](C)(Cc1ccc(O)cc1)NC(=O)[C@H](CCCCNC(=O)COCCOCCNC(=O)COCCOCCNC(=O)CCCCCCCCCCCCC(=O)O)NC(=O)[C@@H](NC(=O)[C@H](Cc1ccccc1)NC(=O)[C@H](CCC(=O)O)NC(=O)C(C)(C)NC(=O)[C@H](CCC(N)=O)NC(=O)[C@H](C)NC(=O)[C@H](CCCCNC(=O)COCCOCCNC(=O)COCCOCCNC(=O)CCCCCCCCCCCCC(=O)O)NC(=O)[C@H](CCCN)NC(=O)[C@H](CC(=O)O)NC(=O)[C@H](CC(C)C)NC(=O)[C@](C)(CC(C)C)NC(=O)[C@@H](NC(=O)[C@H](CO)NC(=O)[C@H](Cc1ccncc1)NC(=O)[C@H](CC(=O)O)NC(=O)[C@H](CO)NC(=O)[C@@H](NC(=O)[C@](C)(Cc1ccccc1F)NC(=O)[C@@H](NC(=O)CNC(=O)[C@H](CCC(=O)O)NC(=O)C(C)(C)NC(=O)[C@@H](N)Cc1ccc(O)cc1)[C@@H](C)O)[C@@H](C)O)[C@@H](C)CC)[C@@H](C)CC)C(=O)N[C@@H](CCC(=O)O)C(=O)NCC(=O)NCC(=O)N1CCC[C@H]1C(=O)N[C@@H](CO)C(=O)N[C@@H](CO)C(=O)NCC(=O)N[C@@H](C)C(=O)N1CCC[C@H]1C(=O)N1CCC[C@H]1C(=O)N1CCC[C@H]1C(=O)N[C@@H](CO)C(N)=O` [Example 81]: the EC50 in assay [1] (hGLP-1R EC50, nM (SEM, n), 0.1% bovine casein and 1.0% human serum albumin, 37° C.) is 3.47 nM; in assay [1] (hGLP-1R EC50, nM (SEM, n), cAMP, incubated at 37° C., 0.1% bovine casein (no human serum albumin)) it was 0.176 nM; in assay [2] (hGIPR EC50, nM (SEM, n), 0.1% bovine casein and 1.0% human serum albumin, 37° C.), 0.531 nM; in assay [2] (hGIPR EC50, nM (SEM, n), cAMP, incubated at 37° C., 0.1% bovine casein (no human serum albumin)) it was 0.0114 nM; in assay [3] (hGCGR EC50, nM (SEM, n), 0.1% bovine casein and 1.0% human serum albumin, 37° C., geometric mean), more than 9950 nM; in assay [3] (hGCGR EC50, nM (SEM, n), cAMP, incubated at 37° C., 0.1% bovine casein (no human serum albumin), geometric mean) it was more than 9950 nM. In addition, the Emax in assay [2] (HEK293, read-out: hGIPR Emax, % ± SEM, 0.1% bovine casein and 1.0% human serum albumin, 37° C.) turned out to be 97.4%.

In the case of `CC[C@H](C)[C@H](NC(=O)[C@H](CC(C)C)NC(=O)[C@](C)(Cc1ccc(O)cc1)NC(=O)[C@@H](CCC(=O)O)NC(=O)[C@@H](NC(=O)[C@H](Cc1ccccc1)NC(=O)[C@H](CCC(=O)O)NC(=O)C(C)(C)NC(=O)[C@H](CCC(N)=O)NC(=O)[C@H](C)NC(=O)[C@H](CCCCNC(=O)COCCOCCNC(=O)COCCOCCNC(=O)CC[C@H](NC(=O)CCCCCCCCCCCCC(=O)O)C(=O)O)NC(=O)[C@H](CCCN)NC(=O)[C@H](CC(=O)O)NC(=O)[C@H](CC(C)C)NC(=O)[C@](C)(CC(C)C)NC(=O)[C@@H](NC(=O)[C@H](CO)NC(=O)[C@H](Cc1ccc(OC)cc1)NC(=O)[C@H](CC(=O)O)NC(=O)[C@H](CO)NC(=O)[C@@H](NC(=O)[C@](C)(Cc1ccccc1F)NC(=O)[C@@H](NC(=O)CNC(=O)[C@H](CCC(=O)O)NC(=O)C(C)(C)NC(=O)[C@@H](N)Cc1ccc(O)cc1)[C@@H](C)O)[C@@H](C)O)[C@@H](C)CC)[C@@H](C)CC)C(=O)N[C@@H](CCC(=O)O)C(=O)NCC(=O)NCC(=O)N1CCC[C@H]1C(=O)N[C@@H](CO)C(=O)N[C@@H](CO)C(=O)NCC(=O)N[C@@H](C)C(=O)N1CCC[C@H]1C(=O)N1CCC[C@H]1C(=O)N1CCC[C@H]1C(=O)N[C@@H](CO)C(=O)N[C@@H](CCCCNC(=O)COCCOCCNC(=O)COCCOCCNC(=O)CC[C@H](NC(=O)CCCCCCCCCCCCC(=O)O)C(=O)O)C(N)=O` [Example 261], the Emax was found to be 97.9% in assay [1] (setting [4]), 75.7% in assay [2] (setting [5]) and 105% in assay [2] (setting [6]). Also, the figures for the EC50 in assay [2] (setting [7]), in assay [3] (setting [8]) and in assay [3] (setting [9]) were 0.025 nM, more than 9950 nM and more than 9950 nM, respectively.

Turning to `CC[C@H](C)[C@H](NC(=O)[C@H](CC(C)C)NC(=O)[C@](C)(Cc1ccc(O)cc1)NC(=O)[C@@H](CCC(=O)O)NC(=O)[C@@H](NC(=O)[C@H](Cc1ccccc1)NC(=O)[C@H](CCCCNC(=O)CCOCCOCCOCCOCCNC(=O)CC[C@H](NC(=O)CCCCCCCCCCCCC(=O)O)C(=O)O)NC(=O)C(C)(C)NC(=O)[C@H](CCC(N)=O)NC(=O)[C@H](C)NC(=O)[C@H](CCCCNC(=O)CCOCCOCCOCCOCCNC(=O)CC[C@H](NC(=O)CCCCCCCCCCCCC(=O)O)C(=O)O)NC(=O)[C@H](CCCN)NC(=O)[C@H](CC(=O)O)NC(=O)[C@H](CC(C)C)NC(=O)[C@](C)(CC(C)C)NC(=O)[C@@H](NC(=O)C(C)(C)NC(=O)[C@H](Cc1ccncc1)NC(=O)[C@H](CC(=O)O)NC(=O)[C@H](CO)NC(=O)[C@@H](NC(=O)[C@](C)(Cc1ccccc1F)NC(=O)[C@@H](NC(=O)CNC(=O)[C@H](CCC(=O)O)NC(=O)C(C)(C)NC(=O)[C@@H](N)Cc1ccc(O)cc1)[C@@H](C)O)[C@@H](C)O)[C@@H](C)CC)[C@@H](C)CC)C(=O)N[C@@H](CCC(=O)O)C(=O)NCC(=O)NCC(=O)N1CCC[C@H]1C(=O)N[C@@H](CO)C(=O)N[C@@H](CO)C(=O)NCC(=O)N[C@@H](C)C(=O)N1CCC[C@H]1C(=O)N1CCC[C@H]1C(=O)N1CCC[C@H]1C(=O)N[C@@H](CO)C(N)=O` [Example 405], the maximal effect (Emax) in assay [1] (37° C., 0.1% bovine casein and 1.0% human serum albumin) is 78.1%; in assay [1] (setting [4]) it was 93.3%; in assay [2] (HEK293, cAMP, 37° C., 0.1% bovine casein and 1.0% human serum albumin, read-out: hGIPR Emax, % ± SEM), 74.3%; in assay [2] (setting [6]), 100%. Besides, the EC50 was 1.26 nM in assay [1] (setting [10]); 0.0209 nM in assay [2] (setting [7]); more than 9950 nM in assay [3] (setting [9]); more than 9950 nM in assay [3] (cAMP, 37° C., 0.1% bovine casein and 1.0% human serum albumin, geometric mean (SEM, n), read-out: hGCGR EC50, nM (SEM, n)).

`CC[C@H](C)[C@H](NC(=O)[C@H](CC(C)C)NC(=O)[C@](C)(Cc1ccc(O)cc1)NC(=O)[C@@H](CCC(=O)O)NC(=O)[C@@H](NC(=O)[C@H](Cc1ccccc1)NC(=O)[C@H](CCCCNC(=O)COCCOCCNC(=O)COCCOCCNC(=O)CC[C@H](NC(=O)CCCCCCCCCCCCC(=O)O)C(=O)O)NC(=O)C(C)(C)NC(=O)[C@H](CCC(N)=O)NC(=O)[C@H](C)NC(=O)[C@H](CCCCNC(=O)COCCOCCNC(=O)COCCOCCNC(=O)CC[C@H](NC(=O)CCCCCCCCCCCCC(=O)O)C(=O)O)NC(=O)[C@H](CCCN)NC(=O)[C@H](CC(=O)O)NC(=O)[C@H](CC(C)C)NC(=O)[C@](C)(CC(C)C)NC(=O)[C@@H](NC(=O)C(C)(C)NC(=O)[C@@H](NC(=O)[C@H](CC(=O)O)NC(=O)[C@H](CO)NC(=O)[C@@H](NC(=O)[C@](C)(Cc1ccccc1F)NC(=O)[C@@H](NC(=O)CNC(=O)[C@H](CCC(=O)O)NC(=O)C(C)(C)NC(=O)[C@@H](N)Cc1ccc(O)cc1)[C@@H](C)O)[C@@H](C)O)C(C)C)[C@@H](C)CC)[C@@H](C)CC)C(=O)N[C@@H](CCC(=O)O)C(=O)NCC(=O)NCC(=O)N1CCC[C@H]1C(=O)N[C@@H](CO)C(=O)N[C@@H](CO)C(=O)NCC(=O)N[C@@H](C)C(=O)N1CCC[C@H]1C(=O)N1CCC[C@H]1C(=O)N1CCC[C@H]1C(=O)N[C@@H](CO)C(N)=O` [Example 318]: the EC50 in assay [1] (setting [10]) was 0.219 nM; in assay [2] (setting [7]), 0.0402 nM; in assay [3] (setting [8]), more than 9950 nM; in assay [3] (setting [9]), more than 9950 nM. In assay [2] (setting [5]), the Emax was 91.4%.
